How the values were obtained:
α1β2γ2 GABAA receptor = α1β2γ2 GABAA receptor (Homo sapiens (Human), UniProt P14867+P47870); conditions: for Emax / Emax at 10 µM: LTK; for Emax: read-out: GABAa alpha1 (α1β2γ2) Emax (%), potentiation of GABA EC20 (2 μM) current; for Emax at 10 µM: read-out: GABA (α1β2γ2) Qpatch in Ltk, % efficacy at 10 μM, Qpatch, Ltk cells, 10 μM compound, 2 μM GABA
Description: LTK cells are stably transfected with the α1β2γ2 subunits of the GABA receptor and CHO cells are transiently transfected with the α4β3δ subunits via the Lipofecatamine method. Cells were passaged at a confluence of about 50-80% and then seeded onto 35 mm sterile culture dishes containing 2 ml culture complete medium without antibiotics or antimycotics.
Whole cell currents were measured with HEKA EPC-10 amplifiers using PatchMaster software or by using the high throughput QPatch platform (Sophion). […] In some cases 0.005% cremophor was also added. Intracellular (pipette) solution contained: KCl 130 mM, MgCl2 1 mM, Mg-ATP 5 mM, HEPES 10 mM, EGTA 5 mM, pH 7.2. During experiments, cells and solutions were maintained at room temperature (19° C.-30° C.). For manual patch clamp recordings, cell culture dishes were placed on the dish holder of the microscope and continuously perfused (1 ml/min) with bath solution. After formation of a Gigaohm seal between the patch electrodes and the cell (pipette resistance range: 2.5 MΩ-6.0 MΩ; seal resistance range: >1 GΩ) the cell membrane across the pipette tip was ruptured to assure electrical access to the cell interior (whole-cell patch-configuration). For experiments using the QPatch system, cells were transferred as suspension to the QPatch system in the bath solution and automated whole cell recordings were performed.
Cells were voltage clamped at a holding potential of −80 mV. For the analysis of test articles, GABA receptors were stimulated by 2 μM GABA after sequential pre-incubation of increasing concentrations of the test article. Pre-incubation duration was 30 s and the duration of the GABA stimulus was 2 s. Test articles were dissolved in DMSO to form stock solutions (10 mM). Test articles were diluted to 0.01, 0.1, 1, and 10 μM in bath solution. All concentrations of test articles were tested on each cell. The relative percentage potentiation was defined as the peak amplitude in response to GABA EC20 in the presence of the test article divided by the peak amplitude in response to GABA EC20 alone, multiplied by 100.

[1] = molecular target: [35S]-TBPS binding, rat brain cortical membranes; assay: Steroid inhibition of [35S]-TBPS binding; conditions: 3 nM [35S]-TBPS, in the presence of 5 μM GABA
Description: Steroid Inhibition of TBPS Binding
[35S]-t-Butylbicylophorothionate (TBPS) binding assays using rat brain cortical membranes in the presence of 5 μM GABA has been described (Gee et al, J. Pharmacol. Exp. Ther. 1987, 241, 346-353; Hawkinson et al, Mol. Pharmacol. 1994, 46, 977-985; Lewin, A. H et al., Mol. Pharmacol. 1989, 35, 189-194).
Briefly, cortices are rapidly removed following decapitation of carbon dioxide-anesthetized Sprague-Dawley rats (200-250 g). The cortices are homogenized in 10 volumes of ice-cold 0.32 M sucrose using a glass/teflon homogenizer and centrifuged at 1500×g for 10 min at 4° C. The resultant supernatants are centrifuged at 10,000×g for 20 min at 4° C. to obtain the P2 pellets. The P2 pellets are resuspended in 200 mM NaCl/50 mM Na—K phosphate pH 7.4 buffer and centrifuged at 10,000×g for 10 min at 4° C. This washing procedure is repeated twice and the pellets are resuspended in 10 volumes of buffer. Aliquots (100 μL) of the membrane suspensions are incubated with 3 nM [^35S]-TBPS and 5 μL aliquots of test drug dissolved in dimethyl sulfoxide (DMSO) (final 0.5%) in the presence of 5 μM GABA. The incubation is brought to a final volume of 1.0 mL with buffer. Nonspecific binding is determined in the presence of 2 μM unlabeled TBPS and ranged from 15 to 25%. Following a 90 min incubation at room temp, the assays are terminated by filtration through glass fiber filters (Schleicher and Schuell No. 32) using a cell harvester (Brandel) and rinsed three times with ice-cold buffer. Filter bound radioactivity is measured by liquid scintillation spectrometry. Non-linear curve fitting of the overall data for each drug averaged for each concentration is done using Prism (GraphPad).
Various compounds are or can be screened to determine their potential as modulators of [^355]-TBPS binding in vitro. These assays are or can be performed in accordance with the above discussed procedures.

Compound	IC50 [1] [nM]	other results
C[C@@H]1CN(CC(=O)[C@H]2CC[C@H]3[C@@H]4CC[C@@H]5C[C@](C)(O)CC[C@@H]5[C@H]4CC[C@]23C)CCO1 [Entry 2]		EC50 (α1β2γ2 GABAA receptor): 1000 to 2000 nM; Emax (α1β2γ2 GABAA receptor): 0 to 500%
C[C@@H]1COCCN1CC(=O)[C@H]1CC[C@H]2[C@@H]3CC[C@@H]4C[C@](C)(O)CC[C@@H]4[C@H]3CC[C@]12C [Entry 3]		EC50 (α1β2γ2 GABAA receptor): > 2000 nM; Emax (α1β2γ2 GABAA receptor): 0 to 500%
C[C@@]1(O)CC[C@H]2[C@H](CC[C@@H]3[C@@H]2CC[C@]2(C)[C@@H](C(=O)CN4CC(O)C4)CC[C@@H]32)C1 [Entry 5]	≥ 500	
C[C@@H]1CN(CC(=O)[C@H]2CC[C@H]3[C@@H]4CC[C@@H]5C[C@](C)(O)CC[C@@H]5[C@H]4CC[C@]23C)CCO1 [Entry 6]		Emax at 10 µM (α1β2γ2 GABAA receptor): 100 to 500%
C[C@@H]1COCCN1CC(=O)[C@H]1CC[C@H]2[C@@H]3CC[C@@H]4C[C@](C)(O)CC[C@@H]4[C@H]3CC[C@]12C [Entry 7]		Emax at 10 µM (α1β2γ2 GABAA receptor): 100 to 500%
CNC(=O)N1CCN(CC(=O)[C@H]2CC[C@H]3[C@@H]4CC[C@@H]5C[C@](C)(O)CC[C@@H]5[C@H]4CC[C@]23C)CC1 [Entry 9]		Emax at 10 µM (α1β2γ2 GABAA receptor): 100 to 500%
CC(=O)N1CCN(CC(=O)[C@H]2CC[C@H]3[C@@H]4CC[C@H]5C[C@](C)(O)CC[C@@H]5[C@H]4CC[C@]23C)CC1 [Entry 10]		Emax at 10 µM (α1β2γ2 GABAA receptor): 100 to 500%
C[C@@H]1COCCN1CC(=O)[C@H]1CC[C@H]2[C@@H]3CC[C@@H]4C[C@](C)(O)CC[C@@H]4[C@H]3CC[C@]12C [Entry 11]	100 to 500	
C[C@@]1(O)CC[C@H]2[C@@H](CC[C@@H]3[C@@H]2CC[C@]2(C)[C@@H](C(=O)CN4CCC(O)CC4)CC[C@@H]32)C1 [Entry 12]	≥ 500	
CC(=O)N1CCN(CC(=O)[C@H]2CC[C@H]3[C@@H]4CC[C@H]5C[C@](C)(O)CC[C@@H]5[C@H]4CC[C@]23C)CC1 [Entry 13]	100 to 500	
C[C@@]1(O)CC[C@H]2[C@@H](CC[C@@H]3[C@@H]2CC[C@]2(C)[C@@H](C(=O)CN4CCCC(O)C4)CC[C@@H]32)C1 (some centres unmarked) [Entry 15]	≥ 500	
CC(=O)N1CCN(CC(=O)[C@H]2CC[C@H]3[C@@H]4CC[C@@H]5C[C@](C)(O)CC[C@@H]5[C@H]4CC[C@]23C)CC1 [Entry 17]		Emax at 10 µM (α1β2γ2 GABAA receptor): 100 to 500%
C[C@H]1C[C@H]2[C@@H](CC[C@@H]3[C@@H]2CC[C@]2(C)[C@@H](C(=O)CN4CCOCC4)CC[C@@H]32)C[C@]1(C)O [Entry 18]	100 to 500	
CC(=O)N1CCN(CC(=O)[C@H]2CC[C@H]3[C@@H]4CC[C@H]5C[C@](C)(O)[C@H](C)C[C@@H]5[C@H]4CC[C@]23C)CC1 [Entry 20]	100 to 500	
CC(=O)N1CCN(CC(=O)[C@H]2CC[C@H]3[C@@H]4CC[C@H]5C[C@](C)(O)[C@@H](C)C[C@@H]5[C@H]4CC[C@]23C)CC1 [Entry 21]	100 to 500	
COC[C@@]1(O)CC[C@H]2[C@H](CC[C@@H]3[C@@H]2CC[C@]2(C)[C@@H](C(=O)CN4CCN(S(C)(=O)=O)CC4)CC[C@@H]32)C1 [Entry 22]	100 to 500	
C[C@@]1(O)CC[C@H]2[C@H](CC[C@@H]3[C@@H]2CC[C@]2(C)[C@@H](C(=O)CN4CCNCC4)CC[C@@H]32)C1 [Entry 23]	≥ 500	
C[C@@]1(O)CC[C@H]2[C@@H](CC[C@@H]3[C@@H]2CC[C@]2(C)[C@@H](C(=O)CN4CCNCC4)CC[C@@H]32)C1 [Entry 24]	≥ 500	
C[C@@H]1C[C@H]2[C@@H](CC[C@@H]3[C@@H]2CC[C@]2(C)[C@@H](C(=O)CN4CCN(S(C)(=O)=O)CC4)CC[C@@H]32)C[C@]1(C)O [Entry 25]	50 to 100	
CC(=O)N1CCN(CC(=O)[C@H]2CC[C@H]3[C@@H]4CC[C@H]5C[C@](C)(O)[C@H](C)C[C@@H]5[C@H]4CC[C@]23C)CC1 [Entry 26]		Emax at 10 µM (α1β2γ2 GABAA receptor): 100 to 500%
COC[C@@]1(O)CC[C@H]2[C@@H](CC[C@@H]3[C@@H]2CC[C@]2(C)[C@@H](C(=O)CN4CCN(S(C)(=O)=O)CC4)CC[C@@H]32)C1 [Entry 29]		GABA (α1β2γ2) Qpatch in Ltk, % efficacy at 10 μM (α1β2γ2 GABAA receptor; Qpatch, Ltk cells, 10 μM compound, 2 μM GABA): B (“B” ≥100-500)

Compound	IC50 [1] [nM]	other results
COC[C@@]1(O)CC[C@H]2[C@H](CC[C@@H]3[C@@H]2CC[C@]2(C)[C@@H](C(=O)CN4CCN(S(C)(=O)=O)CC4)CC[C@@H]32)C1 [Entry 30]		Emax at 10 µM (α1β2γ2 GABAA receptor): > 500%
C[C@H]1CN(CC(=O)[C@H]2CC[C@H]3[C@@H]4CC[C@@H]5C[C@](C)(O)CC[C@@H]5[C@H]4CC[C@]23C)C[C@H](C)O1 [Entry 31]	10 to 50	
C[C@]12CC[C@H]3[C@@H](CC[C@@H]4C[C@@](O)(CF)CC[C@@H]43)[C@@H]1CC[C@@H]2C(=O)CN1CCN(S(C)(=O)=O)CC1 [Entry 32]		Emax at 10 µM (α1β2γ2 GABAA receptor): > 500%
CC[C@@]1(O)CC[C@H]2[C@@H](CC[C@@H]3[C@@H]2CC[C@]2(C)[C@@H](C(=O)CN4CCN(S(C)(=O)=O)CC4)CC[C@@H]32)C1 [Entry 33]	100 to 500	
CC[C@@]1(O)CC[C@H]2[C@H](CC[C@@H]3[C@@H]2CC[C@]2(C)[C@@H](C(=O)CN4CCN(S(C)(=O)=O)CC4)CC[C@@H]32)C1 [Entry 34]		Emax at 10 µM (α1β2γ2 GABAA receptor): 100 to 500%
C[C@@H]1CCCCN1CC(=O)[C@H]1CC[C@H]2[C@@H]3CC[C@@H]4C[C@](C)(O)CC[C@@H]4[C@H]3CC[C@]12C [Entry 37]	100 to 500	
C[C@@]1(O)CC[C@@H]2[C@H]3CC[C@]4(C)[C@@H](C(=O)CN5CCOCC5)CC[C@H]4[C@@H]3C[C@@H](F)[C@H]2C1 [Entry 38]	≥ 500	
C[C@@H]1C[C@H]2[C@@H](CC[C@@H]3[C@@H]2CC[C@]2(C)[C@@H](C(=O)CN4CCOCC4)CC[C@@H]32)C[C@]1(C)O [Entry 39]	100 to 500	
C[C@]12CC[C@H]3[C@@H](CC[C@@H]4C[C@@](O)(C(F)F)CC[C@@H]43)[C@@H]1CC[C@@H]2C(=O)CN1CCOCC1 [Entry 40]	≥ 500	
CO[C@H]1C[C@H]2[C@@H](CC[C@@H]3[C@@H]2CC[C@]2(C)[C@@H](C(=O)CN4CCOCC4)CC[C@@H]32)C[C@]1(C)O [Entry 41]	≥ 500	
COC[C@@]1(O)CC[C@H]2[C@@H](CC[C@@H]3[C@@H]2CC[C@]2(C)[C@@H](C(=O)CN4CCOCC4)CC[C@@H]32)C1 [Entry 42]	≥ 500	
COC[C@@]1(O)CC[C@H]2[C@H](CC[C@@H]3[C@@H]2CC[C@]2(C)[C@@H](C(=O)CN4CCOCC4)CC[C@@H]32)C1 [Entry 43]	≥ 500	
C[C@@]1(O)CC[C@@H]2[C@H]3CC[C@]4(C)[C@@H](C(=O)CN5CCOCC5)CC[C@H]4[C@@H]3C[C@@H](F)[C@@H]2C1 [Entry 44]	≥ 500	
C[C@]12CC[C@H]3[C@@H](CC[C@@H]4C[C@@](O)(CF)CC[C@@H]43)[C@@H]1CC[C@@H]2C(=O)CN1CCOCC1 [Entry 46]	≥ 500	
C[C@@H]1C[C@H]2[C@@H](CC[C@@H]3[C@@H]2CC[C@]2(C)[C@@H](C(=O)CN4CCOCC4)CC[C@@H]32)C[C@]1(C)O [Entry 47]		Emax at 10 µM (α1β2γ2 GABAA receptor): 10 to 100%
C[C@]12CC[C@H]3[C@@H](CC[C@H]4C[C@@](O)(CF)CC[C@@H]43)[C@@H]1CC[C@@H]2C(=O)CN1CCOCC1 [Entry 48]	≥ 500	
CC[C@@]1(O)CC[C@H]2[C@@H](CC[C@@H]3[C@@H]2CC[C@]2(C)[C@@H](C(=O)CN4CCOCC4)CC[C@@H]32)C1 [Entry 49]	≥ 500	
COC[C@@]1(O)CC[C@H]2[C@@H](CC[C@@H]3[C@@H]2CC[C@]2(C)[C@@H](C(=O)CN4CCOCC4)CC[C@@H]32)C1 [Entry 50]		Emax at 10 µM (α1β2γ2 GABAA receptor): 10 to 100%
C[C@@]1(O)CC[C@H]2[C@H](CC[C@@H]3[C@@H]2CC[C@]2(C)[C@@H](C(=O)CN4CCNCC4)CC[C@@H]32)C1 [Entry 51]	100 to 500	
COC[C@@]1(O)CC[C@H]2[C@@H](CC[C@@H]3[C@@H]2CC[C@]2(C)[C@@H](C(=O)CN4CCN(S(C)(=O)=O)CC4)CC[C@@H]32)C1 [Entry 52]	100 to 500	
C[C@@]1(O)CC[C@H]2[C@H](CC[C@@H]3[C@@H]2CC[C@]2(C)[C@@H](C(=O)CN4CCCOCC4)CC[C@@H]32)C1 [Entry 53]	100 to 500	

Reference: US11912737B2, “19-nor neuroactive steroids and methods of use thereof” (Sage Therapeutics, Inc., priority 2013, dated 2024)
